Source: patent US9096591B2, “Tetracyclic compounds” (Medivation Technologies, Inc., priority 2007, dated 2015)

Tests used:
[1] = system: adrenergic receptors α1D, α2A, α2B; serotonin receptor 5-HT6; dopamine receptor D2L; assay: Classification of compounds (Type 1-4) from receptor binding and neurite outgrowth
rat brain mitochondria = assay: Calcium retention capacity of mitochondria; assay type: biochemical, Wistar rats; settings: at concentrations near the IC50
Protocol: Analyses of extramitochondrial Ca^2+ following a bolus dose of Ca^2+ were performed under energized conditions, in a sucrose based buffer (250 mM sucrose, 10 mM HEPES, 1 mM Pi (K), 1 mM MgCl2, 10 μM EGTA, pH 7.2) containing 5 mkM Arsenazo III, 1 μg/ml oligomycin and 20 μM ADP with 5 mM malate and glutamate as respiratory substrates in a cuvette in a Beckman DU 640 spectrophotometer.

AMPA receptors = assay: AMPA-receptor activity: kainic acid-induced currents in Purkinje cells (patch-clamp); assay type: cell-based, rat; settings: mean±SEM, control=100%
Protocol: The analysis of effects of the testing compounds on AMPA receptors was carried out using an electrophysiological patch-clamp method in whole cell configuration (Hamill et al., 1980) of the Purkinje cell fresh isolated from the cerebellum of juvenile rats (12-15 days). The isolation was carried out using a modified method (Kaneda et al., 1988) in which cerebral 400-600 μm sections were incubated for 60 min in the temperature controlled chamber in 10 mL of buffer solution (150 mM NaCl, 5 mM KCl, 2 mM CaCl2, 2 mM MgSO4.7H2O, 10 mM HEPES, 15 mM glucose, pH 7.42). The incubation solution was exchanged with the incubation buffer with pronase (2 mg/mL) and collagenase (1 mg/mL) for 70 min. After a 20 min wash with the original buffer, all sections were placed into the Petri dish and were separated using a Pasteur pipette. All solutions were constantly aerated with 100% O2 at 34° C. The composition of extracellular saline was: 150 mM NaCl, 5 mM KCl, 2.6 mM CaCl2, 2 mM MgSO4.7H2O, 10 mM HEPES, 15 mM glucose, pH 7.36. The transmembrane current was induced as a result of the activation of AMPA receptors by a superfusion with the agonist solution (kainic acid). The currents were measured using borosilicate microelectrodes (resistance […]) filled with 100 mM KCl, 11 mM EGTA, 1 mM CaCl2, 1 mM MgCl2, 10 mM HEPES, 5 mM ATP, pH 7.2. The currents were registered using EPC-9 (HEKA, Germany) and recorded with Pulse software package which was also purchased from HEKA. The analysis of observations was carried out using Pulsefit (HEKA, Germany) and the statistical significance was analyzed using a Student's T-test criteria. Data are presented as mean±SEM in % of control values.
Compounds of the invention were tested in 3-5 neurons. Every concentration of compound was repeated three-four times in every neuron. Data are presented as mean±SEM in % of Control values (Table 13+14, FIGS. 8-12). Control value=100%.

## CN1CCc2c(c3cc(Cl)ccc3n2CCc2ccc(C(F)(F)F)nc2)C1 [Compound 250]
[1]
  compound type (classification by receptor binding profile and neurite outgrowth): Type one

## CN1CCc2c(c3cc(Cl)ccc3n2CCc2nc(-c3ccccc3)cs2)C1 [Compound C1-8]
Rat brain mitochondria
  calcium-retention capacity of mitochondria: increased the calcium-retention capacity of mitochondria
AMPA receptors; compound 3 × 10^−5 M
  kainic acid-induced currents in Purkinje cells, % of Control values: 90 ± 7%
AMPA receptors; compound 10^−5 M
  kainic acid-induced currents in Purkinje cells, % of Control values: 105 ± 8%
AMPA receptors; compound 10^−6 M
  kainic acid-induced currents in Purkinje cells, % of Control values: 123 ± 8%
AMPA receptors; compound 10^−7 M
  kainic acid-induced currents in Purkinje cells, % of Control values: 102 ± 3%
AMPA receptors; compound 10^−8 M
  kainic acid-induced currents in Purkinje cells, % of Control values: 100 ± 4%
